The source of these data is patent US7037652B2, “Expression analysis of KIAA nucleic acids and polypeptides useful in the diagnosis and treatment of prostate cancer” (Wyeth, priority 2000, dated 2006).

In test [1] the test system is PSA production of LNCaP cells.
Test [2] has as its system PSA expression in LNCaP cells. The conditions noted are these: 10 nM DHT, FIG. 3A.
Another test relates to LNCaP cells. The conditions noted are these: MTT assay, FIG. 1A. Here is the method:
Human prostatic cancer cell lines LNCaP, DU-145, PC-3, and Tsu-prl were obtained from ATCC. LNCaP cancer cells were maintained in humidified atmosphere of 5% CO2 in air in RPMI 1640 medium supplemented with 10% fetal calf serum (Life Technologies, Inc, Rockville, Md.), 3 mM L-glutamine, 100 μg/ml streptomycin and 100 units/ml penicillin. Other lines were maintained in DMEM containing 3 mM L-glutamine, 100 μg/ml streptomycin, 100 units/ml penicillin, and 10% FCS in humidified atmosphere of 5% CO2. To examine the effects of steroids, cells were cultured in RPMI 1640 medium containing 5% FCS treated with dextran coated charcoal (Hyclone, Logan, Utah) for 24 hs before treatment. Cells were grown in the absence or presence of 10 nM DHT for 0, 2, 4, 6, 12, 24, 48, and 72 hs. They were collected and frozen at each time point. Two hundred μl of medium were collected from each flask for PSA assay.
To verify the effect of DHT on the growth of LNCaP cells, cells at 3,000 cells/well were plated in 96-well plates for 24 hs before treatment with DHT. After 72 hs, MTT was added to each well and incubated at 37° C. for four hs. At the end of incubation, the supernatant was removed and 100 μl DMSO was added to each well to dissolve […]. Plates were subsequently read in a plate reader at […].

Test [3] relates to Prostatic Acid Phosphatase (PAcP) in LNCaP. Conditions: cited from earlier work.
The subject of test [4] is KIAA 18 expression in LNCaP cells. The conditions noted are these: 10 nM DHT.
For test [5], the system named is KIAA 96 expression in LNCaP cells. Conditions: 10 nM DHT, 24 hours, FIG. 3C.

Each structure is given as a SMILES string.

For `C[C@]12CCC(=O)C[C@@H]1CC[C@@H]1[C@@H]2CC[C@]2(C)[C@@H](O)CC[C@@H]12` [DHT, dihydrotestosterone], in test [1], the PSA production entry is “increased in a dose-dependent manner”, the “time at which PSA signal was first detected” value stood at 12 h and the “time of maximal PSA level” value was “about 48 hs”. The “PSA expression increase relative to control” value in test [2] (12 hours) amounted to 3 fold. For the same compound, the “PSA expression induction relative to control” value in test [2] (72 hours) is given as “approximately 4 fold”. Further, in the test on LNCaP cells, the “growth of LNCaP cells” value was “stimulated”. Also, in test [3], the PAcP expression entry is on record as “suppressed”. Besides, the “time at which KIAA 18 induction began” value in test [4] was 12 h. In addition, the “KIAA 18 over-expression relative to control” value in test [4] (24 hours, FIG. 3B) turned out to be 2 fold. For the same compound, the “KIAA 18 induction relative to baseline” value in test [4] (72 hours) came out at 3 fold. Also, the “KIAA 96 expression down relative to baseline” value in test [5] is on record as 6 fold.
